Measurements published in patent US20250059172A1, “INDAZOLE COMPOUND AND PHARMACEUTICAL” (NIPPON SHINYAKU CO., LTD., priority 2021, published 2025).
Structures can show the parent of a compound that is named as a salt.

What was measured:
human mPGES-1 = human mPGES-1 (Homo sapiens (Human), UniProt O14684); experiment: mPGES-1 inhibitory activity test; format: biochemical; details: for IC50: microsomes of CHO-K1 cells expressing human mPGES-1, PGH2 1 μM, PGE2 by HTRF, read-out: mPGES-1 inhibition (IC50 nM); for inhibition at 0.01 µM: 10 nM test compound; for inhibition at 0.1 µM: 100 nM test compound
human mPGES-1, sequence (O14684 whole entry): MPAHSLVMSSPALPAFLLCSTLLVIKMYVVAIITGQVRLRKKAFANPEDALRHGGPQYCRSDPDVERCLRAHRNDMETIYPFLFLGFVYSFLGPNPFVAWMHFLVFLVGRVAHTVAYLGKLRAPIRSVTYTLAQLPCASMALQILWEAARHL
Outline: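 PGE2 formation was quantified by HTRF and reported as percent inhibition at 10 and 100 nM compound or as IC50. The 60-second reaction at 4° C used 1 μM PGH2, after a 20-minute 4° C preincubation of compound (1% DMSO final) with glutathione-supplemented (2.5 mM, pH 7.4) microsomes. The microsomes were from transiently transfected CHO-K1 cells expressing human mPGES-1.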

human A549 cells = experiment: Inhibition test of PGE2 production using human A549 cells; format: cell-based; details: IL-1β stimulated A549 cells, 24 h, PGE2 by HTRF, read-out: A549 cell inhibition of PGE2 production IC50
Outline: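 A549 cells were preincubated 60 min with compound in RPMI/3% FBS (0.1% DMSO final), then stimulated with IL-1β (5 ng/well) for 24 h at 37°C. PGE2 was measured by HTRF and PGF2a by EIA; activity was normalized to stimulated minus unstimulated controls, and IC50 derived.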

| IC50 (human mPGES-1) [nM] | IC50 (human A549 cells) [nM] | inhibition at 0.01 µM (human mPGES-1) [%] | inhibition at 0.1 µM (human mPGES-1) [%] | SMILES |
| --- | --- | --- | --- | --- |
| 4.5 | 6.7 |  |  | O=C(Nc1cccc2c1cnn2-c1ccc(C(F)(F)F)cc1)c1cc(CNC(=O)C2CCC2)ccc1Cl [Example 29, 2-Chloro-5-{[(cyclobutylcarbonyl)amino]methyl}-N-{1-[4-(trifluoromethyl)phenyl]-1H-indazol-4-yl}benzamide] |
| 0.2 | 4 |  |  | CCOc1cccc(-n2ncc3c(NC(=O)c4cc(CNC(=O)C(C)(C)C)ccc4Cl)cccc32)c1 [Example 66, 2-Chloro-5-{[(2,2-dimethylpropanoyl)amino]methyl}-N-[1-(3-ethoxyphenyl)-1H-indazol-4-yl]benzamide] |
| 1.5 | 4.5 |  |  | O=C(Nc1cccc2c1cnn2-c1ccc(C(F)(F)F)cc1)c1cc(CNC(=O)C2CC2)ccc1Cl [Example 1, 2-Chloro-5-{[(cyclopropylcarbonyl)amino]methyl}-N-{1-[4-(trifluoromethyl)phenyl]-1H-indazol-4-yl}benzamide] |
|  | 5.6 | 100 |  | O=C(Nc1cccc2c1cnn2-c1cncc(C(F)(F)F)c1)c1cc(CNS(=O)(=O)C2CC2)ccc1Cl [Example 172, 2-Chloro-5-{[(cyclopropylsulfonyl)amino]methyl}-N-{l-[5-(trifluoromethyl)pyridin-3-yl]-1H-indazol-4-yl}benzamide] |
|  | 17.3 | 71 |  | CCn1ncc2c(NC(=O)c3cc(CNC(=O)C4(C(F)(F)F)CC4)ccc3Cl)cccc21 [Example 212, 2-Chloro-N-(1-ethyl-1H-indazol-4-yl)-5-[({[1-(trifluoromethyl)cyclopropyl]carbonyl}amino)methyl]benzamide] |
| 1.5 | 5.3 |  |  | CC(C)(C)C(=O)NCc1ccc(Cl)c(C(=O)Nc2cccc3c2cnn3-c2cscn2)c1 [Example 83, 2-Chloro-5-{[(2,2-dimethylpropanoyl)amino]methyl}-N-[1-(1,3-thiazol-4-yl)-1H-indazol-4-yl]benzamide] |
|  | 65.8 | 84 |  | CCn1ncc2c(NC(=O)c3cc(CNC(=O)C4CCCC4)ccc3Cl)cccc21 [Example 211, 2-Chloro-5-{[(cyclopentylcarbonyl)amino]methyl}-N-(1-ethyl-1H-indazol-4-yl)benzamide] |
| 1.2 | 3.3 |  |  | COc1cc(-n2ncc3c(NC(=O)c4cc(CNC(=O)C(C)(C)C)ccc4Cl)cccc32)ccn1 [Example 73, 2-Chloro-5-{[(2,2-dimethylpropanoyl)amino]methyl}-N-[1-(2-methoxypyridin-4-yl)-1H-indazol-4-yl]benzamide hydrochloride] |
| 10 | 0.3 |  |  | Cc1cc(-n2ncc3c(NC(=O)c4cc(CNC(=O)C(C)(C)C)ccc4Cl)cccc32)ccc1OC(F)(F)F [Example 82, 2-Chloro-5-{[(2,2-dimethylpropanoyl)amino]methyl}-N-{1-[3-methyl-4-(trifluoromethoxy)phenyl]-1H-indazol-4-yl}benzamide] |
|  | 7.7 | 75 |  | CC(C)(C)C(=O)NCc1ccc(C(F)(F)F)c(C(=O)Nc2cccc3c2cnn3C2CC2)c1 [Example 285, 5-{[(2,2-Dimethylpropanoyl)amino]methyl}-N-(1-cyclopropyl-1H-indazol-4-yl)-2-(trifluoromethyl)benzamide] |
| 2.7 | 4 |  |  | CC(C)(C)OC(=O)N1CCC(n2ncc3c(NC(=O)c4cc(CNC(=O)C(C)(C)C)ccc4Cl)cccc32)CC1 [Example 103, tert-Butyl 4-(4-{[(2-chloro-5-{[(2,2-dimethylpropanoyl)amino]methyl}phenyl)carbonyl]amino}-1H-indazol-1-yl)piperidine-1-carboxylate] |
|  | 10 | 81 |  | O=C(Nc1cccc2c1cnn2-c1nccs1)c1cc(CNC(=O)C2CCCC2)ccc1Cl [Example 227, 2-Chloro-5-{[(cyclopentylcarbonyl)amino]methyl}-N-[1-(1,3-thiazol-2-yl)-1H-indazol-4-yl]benzamide] |
|  | 3.2 | 94 |  | CC(C)(CO)C(=O)NCc1ccc(Cl)c(C(=O)Nc2cccc3c2cnn3-c2ccc(Cl)cc2)c1 [Example 149, 2-Chloro-N-[1-(4-chlorophenyl)-1H-indazol-4-yl]-5-{[(3-hydroxy-2,2-dimethylpropanoyl)amino]methyl}benzamide] |
| 5.5 | 40.6 |  |  | Cn1ncc2c(NC(=O)c3cc(CNC(=O)C(C)(C)C)ccc3Cl)cccc21 [Example 111, 2-Chloro-5-{[(2,2-dimethylpropanoyl)amino]methyl}-N-(1-methyl-1H-indazol-4-yl)benzamide] |
|  | 3.2 | 84 | 100 | COCC(=O)NCc1ccc(Cl)c(C(=O)Nc2cccc3c2cnn3-c2ccc(C)c(C(F)(F)F)c2)c1 [Example 258, 2-Chloro-5-{[(methoxyacetyl)amino]methyl}-N-{l-[4-methyl-3-(trifluoromethyl)phenyl]-1H-indazol-4-yl}benzamide] |
| 5.2 | 1.5 |  |  | O=C(Nc1cccc2c1cnn2-c1ccc(C(F)(F)F)cc1)c1cc(CNS(=O)(=O)C2CC2)ccc1Cl [Example 23, 2-Chloro-5-{[(cyclopropylsulfonyl)amino]methyl}-N-{1-[4-(trifluoromethyl)phenyl]-1H-indazol-4-yl}benzamide] |
|  | 1 | 89 | 101 | Cc1ccc(-n2ncc3c(NC(=O)c4cc(CNS(=O)(=O)C5CC5)ccc4Cl)cccc32)cc1C(F)(F)F [Example 260, 2-Chloro-5-{[(cyclopropylsulfonyl)amino]methyl}-N-{1-[4-methyl-3-(trifluoromethyl)phenyl]-1H-indazol-4-yl}benzamide] |

Second part, the compound before the results:

| SMILES | IC50 (human mPGES-1) [nM] | IC50 (human A549 cells) [nM] | inhibition at 0.01 µM (human mPGES-1) [%] | inhibition at 0.1 µM (human mPGES-1) [%] |
| --- | --- | --- | --- | --- |
| CC(C)(C)C(=O)NCc1ccc(Cl)c(C(=O)Nc2cccc3c2cnn3CC2CCCCO2)c1 (centres unmarked) [Example 105, 2-Chloro-5-{[(2,2-dimethylpropanoyl)amino]methyl}-N-[1-(tetrahydro-2H-pyran-2-ylmethyl)-1H-indazol-4-yl]benzamide] | 1.3 | 11.1 |  |  |
| Cc1ccc(-n2ncc3c(NC(=O)c4cc(CNC(=O)C5CC5)ccc4Cl)cccc32)cc1 [Example 6, 2-Chloro-5-{[(cyclopropylcarbonyl)amino]methyl}-N-[1-(4-methylphenyl)-1H-indazol-4-yl]benzamide] | 1.3 | 0.6 |  |  |
| CC(C)(C)C(=O)NCc1ccc(Cl)c(C(=O)Nc2cccc3c2cnn3-c2cncc(C3CC3)c2)c1 [Example 64, 2-Chloro-N-[1-(5-cyclopropylpyridin-3-yl)-1H-indazol-4-yl]-5-{[(2,2-dimethylpropanoyl)amino]methyl}benzamide hydrochloride] | 1.4 | 1.9 |  |  |
| COCCC(=O)NCc1ccc(Cl)c(C(=O)Nc2cccc3c2cnn3-c2ccc(C(F)(F)F)cc2)c1 [Example 47, 2-Chloro-5-{[(3-methoxypropanoyl)amino]methyl}-N-{1-[4-(trifluoromethyl)phenyl]-1H-indazol-4-yl}benzamide] | 8 | 8.5 |  |  |
| Cc1c(Cl)cccc1-n1ncc2c(NC(=O)c3cc(CNC(=O)C4CC4)ccc3Cl)cccc21 [Example 15, 2-Chloro-N-[1-(3-chloro-2-methylphenyl)-1H-indazol-4-yl]-5-{[(cyclopropylcarbonyl)amino]methyl}benzamide] | 5.6 | 7.8 |  |  |
| CN(C)CC(=O)NCc1ccc(Cl)c(C(=O)Nc2cccc3c2cnn3-c2ccc(C(F)(F)F)cc2)c1 [Example 24, 2-Chloro-5-{[(N,N-dimethylglycyl)amino]methyl}-N-{1-[4-(trifluoromethyl)phenyl]-1H-indazol-4-yl}benzamide hydrochloride] | 57.1 | 46.4 |  |  |
| O=C(Nc1cccc2c1cnn2-c1ccc(OC(F)(F)F)cc1)c1cc(CNC(=O)C2(C(F)(F)F)CC2)ccc1Cl [Example 116, 2-Chloro-N-{1-[4-(trifluoromethoxy)phenyl]-1H-indazol-4-yl}-5-[({[1-(trifluoromethyl)cyclopropyl]carbonyl}amino)methyl]benzamide] |  | 0.6 | 68 | 100 |
| CC(C)Oc1cccc(-n2ncc3c(NC(=O)c4cc(CNC(=O)C(C)(C)C)ccc4Cl)cccc32)c1 [Example 68, 2-Chloro-5-{[(2,2-dimethylpropanoyl)amino]methyl}-N-{1-[3-(propan-2-yloxy)phenyl]-1H-indazol-4-yl}benzamide] | 6.7 | 2 |  |  |
| CC(C)(C)C(=O)NCc1ccc(Cl)c(C(=O)Nc2cccc3c2cnn3C2CCCCC2)c1 [Example 98, 2-Chloro-N-(1-cyclohexyl-1H-indazol-4-yl)-5-{[(2,2-dimethylpropanoyl)amino]methyl}benzamide] | 9 | 1.6 |  |  |
| O=C(Nc1cccc2c1cnn2-c1ccc(C(F)(F)F)cc1)c1cc(CNC(=O)C2CCOC2)ccc1Cl (centres unmarked) [Example 34, N-[4-chloro-3-({1-[4-(trifluoromethyl)phenyl]-1H-indazol-4-yl}carbamoyl)benzyl]-tetrahydrofuran-3-carboxamide] | 31 | 20.7 |  |  |
| O=C(Nc1cccc2c1cnn2-c1cccc(C(F)(F)F)c1)c1cc(CNC(=O)C2CC2)ccc1Cl [Example 3, 2-Chloro-5-{[(cyclopropylcarbonyl)amino]methyl}-N-{1-[3-(trifluoromethyl)phenyl]-1H-indazol-4-yl}benzamide] | 1.2 | 0.7 |  |  |
